Source: the NIST ThermoML archive (doi:10.1021/acs.jced.5b00922)

Assay: mn = molality of the nth substance listed, in mol/kg
Settings: 100 kPa, Liquid; for viscosity: Capillary tube (Ostwald / Ubbelohde) method; for mass density: Pycnometric method

NCCCNCCCN [bis(3-aminopropyl)amine] + O
Settings	mass density [kg/m3]	viscosity [mPa·s]
298 K, m1 = 0.102	997.56	0.95
298 K, m1 = 0.313	997.47	1.07
298 K, m1 = 0.537	997.32	1.23
298 K, m1 = 0.773	997.12	1.41
298 K, m1 = 1.024	996.9	1.57
298 K, m1 = 1.291	996.71	1.74
303 K, m1 = 0.102	996.21	0.84
303 K, m1 = 0.313	996.12	0.95
303 K, m1 = 0.537	995.98	1.09
303 K, m1 = 0.773	995.83	1.24
303 K, m1 = 1.024	995.67	1.39
303 K, m1 = 1.291	995.53	1.55
308 K, m1 = 0.102	994.48	0.76
308 K, m1 = 0.313	994.37	0.85
308 K, m1 = 0.537	994.17	0.98
308 K, m1 = 0.773	994	1.1
308 K, m1 = 1.024	993.82	1.24
308 K, m1 = 1.291	993.64	1.38
313 K, m1 = 0.102	992.55	0.69
313 K, m1 = 0.313	992.43	0.77
313 K, m1 = 0.537	992.27	0.88
313 K, m1 = 0.773	992.1	0.99
313 K, m1 = 1.024	991.92	1.11
313 K, m1 = 1.291	991.73	1.23
318 K, m1 = 0.102	990.18	0.61
318 K, m1 = 0.313	989.94	0.69
318 K, m1 = 0.537	989.71	0.8
318 K, m1 = 0.773	989.48	0.9
318 K, m1 = 1.024	989.3	1
318 K, m1 = 1.291	989.09	1.11
323 K, m1 = 0.102	987.58	0.55
323 K, m1 = 0.313	987.36	0.63
323 K, m1 = 0.537	987.13	0.73
323 K, m1 = 0.773	986.93	0.81
323 K, m1 = 1.024	986.74	0.9
323 K, m1 = 1.291	986.55	0.98
